The term pIC50 denotes −log10 of the IC50, conventionally taken in molar units.

The source of these data is ChEMBL document CHEMBL1671795, “Evaluation of endogenous fatty acid amides and their synthetic analogues as potential anti-inflammatory leads” (Bioorg Med Chem, 2011).

The subject of data set [1] is RAW264.7. Kind of data set: Antiinflammatory activity against LPS-stimulated mouse RAW264.7 cells assessed as inhibition of IL-6 production at 1 to 15 uM after 18 hrs by ELISA. The format is functional, cell-based. On the technique in general: An ELISA detects its analyte on a solid surface through an enzyme-linked reagent.
The test system of data set [2] is RAW264.7. Kind of data set: Antiinflammatory activity against LPS-stimulated mouse RAW264.7 cells assessed as inhibition of TNFalpha production at 1 to 15 uM after 18 hrs by ELISA. The format is functional, cell-based.
The test system of data set [3] is RAW264.7. The data set is described as follows: Cytotoxicity against mouse RAW264.7 cells at 50 uM after 24 hrs by MTT assay. The data set is classed as cell-based. As to conditions: raw264.7, 24 h. For orientation: Tetrazolium assays rely on reduction of a dye to a coloured formazan, in cell work by metabolically active cells.
In data set [4] the test system is RAW264.7. Kind of data set: Antiinflammatory activity against LPS-stimulated mouse RAW264.7 cells assessed as inhibition of IL1-beta production at 1 to 15 uM after 18 hrs by ELISA. The format is functional, cell-based.
A short description of data set [5]: Cytotoxicity against mouse RAW264.7 cells after 24 hrs by MTT assay. The format is cell-based. As to conditions: read-out: TC50.
Data set [6] concerns RAW264.7. The data set is described as follows: Antiinflammatory activity against LPS-stimulated mouse RAW264.7 cells assessed as inhibition of NO production at 3.125 to 25 uM after 24 hrs by Griess method. The format is functional, cell-based.
The test system of data set [7] is RAW264.7. Kind of data set: Cytotoxicity against mouse RAW264.7 cells at 100 uM after 24 hrs by MTT assay. The data set is classed as cell-based. To be noted: raw264.7, 24 h.
Data set [8] deals with HaCaT. Kind of data set: Cytotoxicity against human HaCaT cells at 50 to 100 uM after 24 hrs by MTT assay. The data set is classed as cell-based.
For data set [9], the system named is HaCaT. The data set is described as follows: Antiinflammatory activity against IFN-gamma-stimulated human HaCaT cells assessed as inhibition of chemokine MDC production at 50 to 100 uM after 18 hrs by ELISA. The format is functional, cell-based.

The structures appear in SMILES notation. pIC50: −log10 of the molar value.

As for `CCCCCCCCCCCCCCCC(=O)NCCc1ccc(O)c(O)c1` [PALMITOYL DOPAMINE], the Activity entry is “Dose-dependent effect” in the data set with RAW264.7 [1]; “Dose-dependent effect” in the data set on RAW264.7 [2]; “Toxic” with RAW264.7 [3]; “Dose-dependent effect” in the data set with RAW264.7 [4]; “Dose-dependent effect” in the data set with RAW264.7 [6]; 2 µM with RAW264.7 [6] (record 2). The figures for the Activity result in the data set with RAW264.7 [7], with HaCaT [8] and in the data set with HaCaT [9] were “Toxic”, “Toxic” and “Non-toxic”, respectively. Moreover, in [5], the CC50 at 24 h was 13 µM.
Take `CCCCCCCCC(=O)/C=C/CCCCCCC(=O)NCCc1ccc(O)c(O)c1`: the Activity entry in the data set with RAW264.7 [1] was “Dose-dependent effect”; in the data set with RAW264.7 [2], “Dose-dependent effect”; in the data set on RAW264.7 [3] it was “Toxic”; in the data set on RAW264.7 [4] it was “Dose-dependent effect”; in the data set on RAW264.7 [6], “Dose-dependent effect”; in the data set on RAW264.7 [7], “Toxic”. The Activity result was “Toxic” in the data set with HaCaT [8] and “Non-toxic” in the data set with HaCaT [9]. The CC50 at 24 h in data set [5] came out at 13 µM. Also, the pIC50 in the data set with RAW264.7 [6] (Mus musculus, RAW264.7, 24 h) is 5.70.
Regarding `CC/C=C\C/C=C\C/C=C\CCCCCCCC(=O)NCCc1ccc(O)c(O)c1` [LINOLEOYL DOPAMINE], the Activity result is “Dose-dependent effect” in the data set with RAW264.7 [1]; “Dose-dependent effect” in the data set on RAW264.7 [2]; “Dose-dependent effect” with RAW264.7 [4]; “Dose-dependent effect” in the data set with RAW264.7 [6]; “Non-toxic” in the data set with HaCaT [9].
Take `CC/C=C\C/C=C\C/C=C\CCCCCCCC(=O)NCc1ccc(O)c(OC)c1`: the Activity entry in the data set on RAW264.7 [1] was “Dose-dependent effect”; in the data set on RAW264.7 [2] it was “Dose-dependent effect”; with RAW264.7 [4], “Dose-dependent effect”; with HaCaT [8], “Toxic”; in the data set with HaCaT [9], “Non-toxic”.
As for `CCCCCCCCC(=O)/C=C/CCCCCCC(=O)N[C@H](C)CO`, the Activity result with RAW264.7 [3] was “Toxic”; with RAW264.7 [6] it was “Dose-dependent effect”; in the data set with RAW264.7 [7] it was “Toxic”; in the data set with HaCaT [8], “Toxic”; in the data set on HaCaT [9], “Non-toxic”.
As to `CCCCCCCC/C=C\CCCCCCCC(=O)NCc1ccc(O)c(OC)c1` [OLVANIL], the Activity entry was “Dose-dependent effect” with RAW264.7 [1]; “Dose-dependent effect” in the data set with RAW264.7 [2]; “Dose-dependent effect” in the data set on RAW264.7 [4]; “Toxic” with HaCaT [8]; “Non-toxic” in the data set with HaCaT [9].
For `CCCCCCCCC(=O)/C=C/CCCCCCC(=O)NCCc1c[nH]c2ccc(O)cc12`, the Activity entry in the data set with RAW264.7 [3] was “Toxic”; with RAW264.7 [6], “Dose-dependent effect”; in the data set with RAW264.7 [7], “Toxic”; in the data set on HaCaT [8], “Toxic”; with HaCaT [9], “Non-toxic”.
Consider `CCCCCCCC/C=C\CCCCCCCC(=O)NCCc1ccc(O)c(O)c1` [OLEOYL DOPAMINE], for which the Activity entry is “Dose-dependent effect” with RAW264.7 [1]; “Dose-dependent effect” in the data set with RAW264.7 [2]; “Toxic” in the data set on RAW264.7 [3]; “Dose-dependent effect” with RAW264.7 [4]; “Dose-dependent effect” in the data set with RAW264.7 [6]; 2 µM in the data set on RAW264.7 [6] (record 2). The Activity entry in the data set with RAW264.7 [7] is “Toxic”; in the data set on HaCaT [8] it was “Toxic”; with HaCaT [9] it was “Non-toxic”. Also, the CC50 at 24 h in data set [5] is 13 µM.
`CCCCCCCC/C=C/C(=O)CCCCCCC(=O)NCC(=O)O`: the Activity entry with RAW264.7 [3] was “Toxic”; in the data set with RAW264.7 [6] it was “Dose-dependent effect”; in the data set on RAW264.7 [7], “Toxic”; with HaCaT [8], “Toxic”; in the data set on HaCaT [9], “Non-toxic”.
In the case of `CCCCCCCCCCCCCCCC(=O)NCc1ccc(O)c(OC)c1`, the Activity result is “Dose-dependent effect” with RAW264.7 [1]; “Dose-dependent effect” in the data set on RAW264.7 [2]; “Dose-dependent effect” in the data set on RAW264.7 [4]; “Toxic” with HaCaT [8]; “Non-toxic” in the data set with HaCaT [9].
For `CCCCCCCCC(=O)/C=C/CCCCCCC(=O)NCCCl`, the Activity entry in the data set on RAW264.7 [3] is “Toxic”; in the data set on RAW264.7 [6] it was “Dose-dependent effect”; in the data set on RAW264.7 [7] it was “Toxic”; with HaCaT [8], “Toxic”; in the data set on HaCaT [9] it was “Non-toxic”.
For `CCCCCCCCC(=O)/C=C/CCCCCCC(=O)NCCO`, the Activity result in the data set with RAW264.7 [3] is “Toxic”; in the data set with RAW264.7 [6] it was “Dose-dependent effect”; in the data set with RAW264.7 [7] it was “Toxic”; in the data set with HaCaT [8], “Toxic”; with HaCaT [9], “Non-toxic”.
Regarding `CCCCCCC/C=C/C(=O)CCCCCCCC(=O)NCC(=O)O`, the Activity entry in the data set with RAW264.7 [3] is “Toxic”; in the data set on RAW264.7 [6] it was “Dose-dependent effect”; in the data set with RAW264.7 [7], “Toxic”; in the data set on HaCaT [8], “Toxic”; in the data set on HaCaT [9], “Non-toxic”.
Take `CCCCCCCCC(=O)/C=C/CCCCCCC(=O)NCC(O)CO` (racemic): the Activity entry in the data set on RAW264.7 [3] was “Toxic”; in the data set with RAW264.7 [6], “Dose-dependent effect”; in the data set on RAW264.7 [7] it was “Toxic”; in the data set with HaCaT [8], “Toxic”; in the data set with HaCaT [9], “Non-toxic”.
In the case of `CCCCC/C=C\C/C=C\CCCCCCCC(=O)NCCc1ccc(O)c(O)c1`, the Activity entry in the data set on RAW264.7 [1] was “Dose-dependent effect”; with RAW264.7 [2], “Dose-dependent effect”; in the data set with RAW264.7 [3], “Toxic”; in the data set on RAW264.7 [4] it was “Dose-dependent effect”; in the data set on RAW264.7 [6] it was “Dose-dependent effect”; in the data set on RAW264.7 [6] (record 2), 2 µM. For the same compound, the Activity result is “Toxic” in the data set with RAW264.7 [7], “Toxic” in the data set with HaCaT [8] and “Non-toxic” in the data set with HaCaT [9]. Besides, the CC50 at 24 h in [5] amounted to 13 µM.
With `CCCCCCCCC(=O)/C=C/CCCCCCC(=O)NC(C)C`, the Activity entry is “Toxic” in the data set on RAW264.7 [3]; “Dose-dependent effect” in the data set on RAW264.7 [6]; “Toxic” with RAW264.7 [7]; “Toxic” in the data set on HaCaT [8]; “Non-toxic” with HaCaT [9].
In the case of `CCCCCCCC/C=C\CCCCCCCCCCCC(=O)NCc1ccc(O)c(OC)c1`, the Activity result in the data set on RAW264.7 [1] is “Dose-dependent effect”; in the data set on RAW264.7 [2], “Dose-dependent effect”; with RAW264.7 [4], “Dose-dependent effect”; with HaCaT [8], “Toxic”; with HaCaT [9], “Non-toxic”.
`CCCCC/C=C\C/C=C\CCCCCCCC(=O)NCc1ccc(O)c(OC)c1`: the Activity result with RAW264.7 [1] is “Dose-dependent effect”; in the data set on RAW264.7 [2], “Dose-dependent effect”; in the data set on RAW264.7 [4] it was “Dose-dependent effect”; in the data set with HaCaT [8], “Toxic”; with HaCaT [9], “Non-toxic”.
Turning to `CCCCCCCC/C=C\CCCCCCCCCCCC(=O)NCCc1ccc(O)c(O)c1`, the Activity result in the data set with RAW264.7 [1] is “Dose-dependent effect”; in the data set with RAW264.7 [2] it was “Dose-dependent effect”; with RAW264.7 [3] it was “Toxic”; in the data set on RAW264.7 [4], “Dose-dependent effect”; in the data set with RAW264.7 [6], “Dose-dependent effect”; in the data set on RAW264.7 [6] (record 2) it was 2 µM. Further, the results for the Activity result with RAW264.7 [7], with HaCaT [8] and with HaCaT [9] were “Toxic”, “Toxic” and “Non-toxic”, respectively. The CC50 at 24 h in [5] worked out at 13 µM.
